Measurements published in ChEMBL document CHEMBL1649226, “Species identification and antifungal susceptibility patterns of species belonging to Aspergillus section Nigri” (2009).
Converted amounts (≈) assume the structure as drawn.

Assays:
Format in all cases: functional
Aspergillus tubingensis [1] = assay: Antifungal activity against Aspergillus tubingensis isolate CM-3507 obtained from respiratory tract infection of patient after 48 hrs by EUCAST broth dilution method; conditions: isolate CM-3507, 48 h
Aspergillus foetidus [2] = assay: Antifungal activity against Aspergillus foetidus isolate CM-4995 obtained from prosthesis after 48 hrs by EUCAST broth dilution method; conditions: isolate CM-4995, 48 h
Aspergillus niger [3] = assay: Antifungal activity against Aspergillus niger isolate CM-3236 obtained from respiratory tract infection of patient after 48 hrs by EUCAST broth dilution method; conditions: isolate CM-3236, 48 h
Aspergillus niger [4] = assay: Antifungal activity against Aspergillus niger isolate CM-5095 obtained from respiratory tract infection of patient after 48 hrs by EUCAST broth dilution method; conditions: isolate CM-5095, 48 h
Aspergillus tubingensis [5] = assay: Antifungal activity against Aspergillus tubingensis isolate CM-4005 after 48 hrs by EUCAST broth dilution method; conditions: isolate CM-4005, 48 h
Aspergillus niger [6] = assay: Antifungal activity against Aspergillus niger isolate CM-4213 obtained from respiratory tract infection of patient after 48 hrs by EUCAST broth dilution method; conditions: isolate CM-4213, 48 h
Aspergillus niger [7] = assay: Antifungal activity against Aspergillus niger isolate CM-3641 obtained from respiratory tract infection of patient after 48 hrs by EUCAST broth dilution method; conditions: isolate CM-3641, 48 h
Aspergillus niger [8] = assay: Antifungal activity against Aspergillus niger isolate CM-3551 obtained from respiratory tract infection of patient after 48 hrs by EUCAST broth dilution method; conditions: isolate CM-3551, 48 h
Aspergillus tubingensis [9] = assay: Antifungal activity against Aspergillus tubingensis isolate CM-4000 after 48 hrs by EUCAST broth dilution method; conditions: isolate CM-4000, 48 h
Aspergillus tubingensis [10] = assay: Antifungal activity against Aspergillus tubingensis isolate CM-5094 obtained from respiratory tract infection of patient after 48 hrs by EUCAST broth dilution method; conditions: isolate CM-5094, 48 h
Aspergillus tubingensis [11] = assay: Antifungal activity against Aspergillus tubingensis isolate CM-4352 obtained from respiratory tract infection of patient after 48 hrs by EUCAST broth dilution method; conditions: isolate CM-4352, 48 h
Aspergillus niger [12] = assay: Antifungal activity against Aspergillus niger isolate CM-3257 obtained from respiratory tract infection of patient after 48 hrs by EUCAST broth dilution method; conditions: isolate CM-3257, 48 h
Aspergillus tubingensis [13] = assay: Antifungal activity against Aspergillus tubingensis isolate CM-4003 after 48 hrs by EUCAST broth dilution method; conditions: isolate CM-4003, 48 h
Aspergillus tubingensis [14] = assay: Antifungal activity against Aspergillus tubingensis isolate CM-3125 obtained from respiratory tract infection of patient after 48 hrs by EUCAST broth dilution method; conditions: isolate CM-3125, 48 h
Aspergillus tubingensis [15] = assay: Antifungal activity against Aspergillus tubingensis isolate CM-3177 obtained from respiratory tract infection of patient after 48 hrs by EUCAST broth dilution method; conditions: isolate CM-3177, 48 h
Aspergillus niger [16] = assay: Antifungal activity against Aspergillus niger isolate CM-4004 obtained from after 48 hrs by EUCAST broth dilution method; conditions: isolate CM-4004, 48 h
Aspergillus tubingensis [17] = assay: Antifungal activity against Aspergillus tubingensis isolate CM-4296 obtained from respiratory tract infection of patient after 48 hrs by EUCAST broth dilution method; conditions: isolate CM-4296, 48 h
Aspergillus niger [18] = assay: Antifungal activity against Aspergillus niger isolate CM-3586 obtained from catheter of patient after 48 hrs by EUCAST broth dilution method; conditions: isolate CM-3586, 48 h
Aspergillus tubingensis [19] = assay: Antifungal activity against Aspergillus tubingensis isolate CM-3123 obtained from respiratory tract infection of patient after 48 hrs by EUCAST broth dilution method; conditions: isolate CM-3123, 48 h
Aspergillus tubingensis [20] = assay: Antifungal activity against Aspergillus tubingensis isolate CM-4899 obtained from respiratory tract infection of patient after 48 hrs by EUCAST broth dilution method; conditions: isolate CM-4899, 48 h
Aspergillus tubingensis [21] = assay: Antifungal activity against Aspergillus tubingensis isolate CM-3585 after 48 hrs by EUCAST broth dilution method; conditions: isolate CM-3585, 48 h
Aspergillus tubingensis [22] = assay: Antifungal activity against Aspergillus tubingensis isolate CM-4264 obtained from blood culture after 48 hrs by EUCAST broth dilution method; conditions: isolate CM-4264, 48 h
Aspergillus niger [23] = assay: Antifungal activity against Aspergillus niger isolate CM-3506 obtained from respiratory tract infection of patient after 48 hrs by EUCAST broth dilution method; conditions: isolate CM-3506, 48 h
Aspergillus foetidus [24] = assay: Antifungal activity against Aspergillus foetidus isolate CM-5264 obtained from respiratory tract infection of patient after 48 hrs by EUCAST broth dilution method; conditions: isolate CM-5264, 48 h
Aspergillus tubingensis [25] = assay: Antifungal activity against Aspergillus tubingensis isolate CM-4897 obtained from blood culture after 48 hrs by EUCAST broth dilution method; conditions: isolate CM-4897, 48 h
Aspergillus niger [26] = assay: Antifungal activity against Aspergillus niger isolate CM-3672 obtained from cutaneous layer of patient after 48 hrs by EUCAST broth dilution method; conditions: isolate CM-3672, 48 h
Aspergillus tubingensis [27] = assay: Antifungal activity against Aspergillus tubingensis isolate CM-3654 obtained from blood culture after 48 hrs by EUCAST broth dilution method; conditions: isolate CM-3654, 48 h
Aspergillus niger [28] = assay: Antifungal activity against Aspergillus niger isolate CM-4262 after 48 hrs by EUCAST broth dilution method Ophthalmic; conditions: isolate CM-4262, 48 h
Aspergillus tubingensis [29] = assay: Antifungal activity against Aspergillus tubingensis isolate CM-4688 obtained from respiratory tract infection of patient after 48 hrs by EUCAST broth dilution method; conditions: isolate CM-4688, 48 h
Aspergillus niger [30] = assay: Antifungal activity against Aspergillus niger isolate CM-3636 obtained from respiratory tract infection of patient after 48 hrs by EUCAST broth dilution method; conditions: isolate CM-3636, 48 h
Aspergillus foetidus [31] = assay: Antifungal activity against Aspergillus foetidus isolate CM-4002 after 48 hrs by EUCAST broth dilution method; conditions: isolate CM-4002, 48 h
Aspergillus tubingensis [32] = assay: Antifungal activity against Aspergillus tubingensis isolate CM-3810 obtained from respiratory tract infection of patient after 48 hrs by EUCAST broth dilution method; conditions: isolate CM-3810, 48 h
Aspergillus niger [33] = assay: Antifungal activity against Aspergillus niger isolate CM-4316 obtained from respiratory tract infection of patient after 48 hrs by EUCAST broth dilution method; conditions: isolate CM-4316, 48 h
Aspergillus tubingensis [34] = assay: Antifungal activity against Aspergillus tubingensis isolate CM-4001 after 48 hrs by EUCAST broth dilution method; conditions: isolate CM-4001, 48 h

- MIC (Aspergillus tubingensis [1]): 0.19 µg/mL (≈ 0.206 µM)
- MIC (Aspergillus foetidus [2]): 0.21 µg/mL (≈ 0.227 µM)
- MIC (Aspergillus niger [3]): 0.19 µg/mL (≈ 0.206 µM)
- MIC (Aspergillus niger [4]): 0.19 µg/mL (≈ 0.206 µM)
- MIC (Aspergillus tubingensis [5]): 0.12 µg/mL (≈ 0.13 µM)
- MIC (Aspergillus niger [6]): 0.33 µg/mL (≈ 0.357 µM)
- MIC (Aspergillus niger [7]): 0.25 µg/mL (≈ 0.271 µM)
- MIC (Aspergillus niger [8]): 0.5 µg/mL (≈ 0.541 µM)
- MIC (Aspergillus tubingensis [9]): 0.16 µg/mL (≈ 0.173 µM)
- MIC (Aspergillus tubingensis [10]): 0.12 µg/mL (≈ 0.13 µM)
- MIC (Aspergillus tubingensis [11]): 0.28 µg/mL (≈ 0.303 µM)
- MIC (Aspergillus niger [12]): 0.25 µg/mL (≈ 0.271 µM)
- MIC (Aspergillus tubingensis [13]): 0.12 µg/mL (≈ 0.13 µM)
- MIC (Aspergillus tubingensis [14]): 0.12 µg/mL (≈ 0.13 µM)
- MIC (Aspergillus tubingensis [15]): 0.16 µg/mL (≈ 0.173 µM)
- MIC (Aspergillus niger [16]): 0.25 µg/mL (≈ 0.271 µM)
- MIC (Aspergillus tubingensis [17]): 0.12 µg/mL (≈ 0.13 µM)
- MIC (Aspergillus niger [18]): 0.25 µg/mL (≈ 0.271 µM)
- MIC (Aspergillus tubingensis [19]): 0.25 µg/mL (≈ 0.271 µM)
- MIC (Aspergillus tubingensis [20]): 0.16 µg/mL (≈ 0.173 µM)
- MIC (Aspergillus tubingensis [21]): 0.19 µg/mL (≈ 0.206 µM)
- MIC (Aspergillus tubingensis [22]): 0.12 µg/mL (≈ 0.13 µM)
- MIC (Aspergillus niger [23]): 0.19 µg/mL (≈ 0.206 µM)
- MIC (Aspergillus foetidus [24]): 0.12 µg/mL (≈ 0.13 µM)
- MIC (Aspergillus tubingensis [25]): 0.16 µg/mL (≈ 0.173 µM)
- MIC (Aspergillus niger [26]): 0.12 µg/mL (≈ 0.13 µM)
- MIC (Aspergillus tubingensis [27]): 0.19 µg/mL (≈ 0.206 µM)
- MIC (Aspergillus niger [28]): 0.25 µg/mL (≈ 0.271 µM)
- MIC (Aspergillus tubingensis [29]): 0.21 µg/mL (≈ 0.227 µM)
- MIC (Aspergillus niger [30]): 0.25 µg/mL (≈ 0.271 µM)
- MIC (Aspergillus foetidus [31]): 0.25 µg/mL (≈ 0.271 µM)
- MIC (Aspergillus tubingensis [32]): 0.25 µg/mL (≈ 0.271 µM)
- MIC (Aspergillus niger [33]): 0.19 µg/mL (≈ 0.206 µM)
- MIC (Aspergillus tubingensis [34]): 0.19 µg/mL (≈ 0.206 µM)
Compound: C[C@@H]1[C@H](O)[C@@H](C)/C=C/C=C/C=C/C=C/C=C/C=C/C=C/[C@H](O[C@@H]2O[C@H](C)[C@@H](O)[C@H](N)[C@@H]2O)C[C@@H]2O[C@](O)(C[C@@H](O)C[C@@H](O)[C@H](O)CC[C@@H](O)C[C@@H](O)CC(=O)O[C@H]1C)C[C@H](O)[C@H]2C(=O)O [AMPHOTERICIN B]
